{"source": "paper PMC7339578", "about": "“Multiple circulating alkaloids and saponins from intravenous Kang-Ai injection inhibit human cytochrome P450 and UDP-glucuronosyltransferase isozymes: potential drug–drug interactions” (Chinese Medicine, 2020)", "key": {"CYP1A2": {"target": "T1, CYP1A2 (Homo sapiens, UniProt P05177)", "T1 construct": "purchased Corning Biosciences 456203", "T1 sequence (P05177 1-516)": "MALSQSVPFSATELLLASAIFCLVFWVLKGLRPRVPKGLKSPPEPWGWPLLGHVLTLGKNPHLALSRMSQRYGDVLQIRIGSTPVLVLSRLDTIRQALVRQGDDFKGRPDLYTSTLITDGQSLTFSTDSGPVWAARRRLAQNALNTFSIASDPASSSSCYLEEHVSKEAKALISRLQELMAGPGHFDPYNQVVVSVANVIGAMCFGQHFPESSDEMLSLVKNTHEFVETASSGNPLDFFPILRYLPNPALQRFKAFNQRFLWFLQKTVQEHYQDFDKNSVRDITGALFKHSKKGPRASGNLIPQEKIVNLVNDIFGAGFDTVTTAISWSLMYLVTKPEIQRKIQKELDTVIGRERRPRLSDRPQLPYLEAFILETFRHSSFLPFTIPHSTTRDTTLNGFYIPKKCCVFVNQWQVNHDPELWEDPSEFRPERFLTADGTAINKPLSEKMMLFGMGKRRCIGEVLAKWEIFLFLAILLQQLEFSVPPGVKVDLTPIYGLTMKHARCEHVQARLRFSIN", "test": "Inhibition of recombinant CYP1A2 (probe phenacetin)", "format": "in vitro ADME", "details": "recombinant isozyme; mean ± SD of triplicate; unit not given (IC50 classes in μM); read-out: IC50 towards CYP1A2", "description": "(§1) In this study, phenacetin (100 μM), coumarin (100 μM), bupropion (100 μM), paclitaxel (60 μM), tolbutamide (200 μM), mephenytoin (100 μM), chlorzoxazone (200 μM) and nifedipine (40 μM) have been used as the probe substrates for CYP1A2, 2A6, 2B6, 2C8, 2C9, 2C19, 2E1 and 3A4, respectively."}, "CYP2C9": {"target": "CYP2C9 (Homo sapiens, UniProt P11712)", "sequence (P11712 whole entry)": "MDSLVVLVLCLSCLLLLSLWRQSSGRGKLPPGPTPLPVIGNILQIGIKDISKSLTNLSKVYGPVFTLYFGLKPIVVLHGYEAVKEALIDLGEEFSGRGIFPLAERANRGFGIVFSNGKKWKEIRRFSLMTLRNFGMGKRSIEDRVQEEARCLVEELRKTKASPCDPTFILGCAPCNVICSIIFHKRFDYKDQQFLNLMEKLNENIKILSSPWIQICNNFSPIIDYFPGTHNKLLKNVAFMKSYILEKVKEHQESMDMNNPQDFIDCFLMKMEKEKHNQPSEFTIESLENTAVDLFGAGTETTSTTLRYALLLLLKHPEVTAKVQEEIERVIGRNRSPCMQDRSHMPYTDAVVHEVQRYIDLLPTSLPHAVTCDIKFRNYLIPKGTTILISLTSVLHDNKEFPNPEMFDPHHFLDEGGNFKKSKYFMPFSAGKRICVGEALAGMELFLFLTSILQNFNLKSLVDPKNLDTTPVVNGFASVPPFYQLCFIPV", "test": "Inhibition of recombinant CYP2C9 (probe tolbutamide)", "format": "in vitro ADME", "details": "recombinant isozyme; mean ± SD of triplicate; unit not given (IC50 classes in μM); read-out: IC50 towards CYP2C9", "description": "as §1"}, "CYP2E1": {"target": "CYP2E1 (Homo sapiens, UniProt P05181)", "sequence (P05181 whole entry)": "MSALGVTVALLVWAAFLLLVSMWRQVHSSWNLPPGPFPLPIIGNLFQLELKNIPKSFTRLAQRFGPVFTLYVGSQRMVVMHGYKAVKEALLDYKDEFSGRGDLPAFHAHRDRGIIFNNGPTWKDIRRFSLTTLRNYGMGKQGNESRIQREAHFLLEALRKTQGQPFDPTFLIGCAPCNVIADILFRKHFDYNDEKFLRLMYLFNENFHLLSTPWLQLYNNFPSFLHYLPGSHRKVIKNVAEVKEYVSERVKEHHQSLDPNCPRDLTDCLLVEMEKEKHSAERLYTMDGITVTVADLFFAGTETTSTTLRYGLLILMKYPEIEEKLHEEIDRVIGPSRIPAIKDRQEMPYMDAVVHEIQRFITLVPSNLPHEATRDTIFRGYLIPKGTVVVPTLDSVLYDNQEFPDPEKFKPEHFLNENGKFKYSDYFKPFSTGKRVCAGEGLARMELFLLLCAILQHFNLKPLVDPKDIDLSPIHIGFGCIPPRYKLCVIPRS", "test": "Inhibition of recombinant CYP2E1 (probe chlorzoxazone)", "description": "Phase I incubation system (100 μL) contained Tris–HCl buffer (50 mM, pH = 7.4), MgCl2 (5 mM), each CYP isozyme, specific substrates, circulating compounds and NADPH (1 mM) as prescribed previously. After incubation (37 °C, 60 min), the reaction was terminated by ice-cold acetonitrile (100 μL), following by centrifugation at 13,800g for 10 min. The supernatant (8 μL) was acquired for ultra-high-performance liquid chromatography (UHPLC) system (Waters, Manchester, UK) analysis.\nAfter optimization of incubation conditions (Additional file 1: Fig. S1), the substrates were incubated with each CYP isozyme at different protein concentrations (0.05 mg/mL for CYP1A2 and 3A4; 0.1 mg/mL for CYP2A6, 2B6, 2C8, 2C9, 2C19 and 2E1) in the absence (control) and presence of different mixture or herbal compounds (Kang-Ai injection and samples that Kang-Ai injection was diluted 10 times; 1, 10, and 100 μM for matrine and oxymatrine; 0.1, 1, 10 and 100 μM for astragalosides and ginsenosides).\nThe half-inhibition concentration (IC50) values were determined by non-linear regression analysis. […] The inhibition mechanism towards corresponding CYP and UGT isoforms were further explored.\nThe inhibition constant (Ki) values were obtained by multiple concentrations of substrates in the absence or presence of multiple concentrations of herbal compounds as described previously. […] (1)–(3), respectively. The model with the smallest Akaike information criterion (AIC) and Schwartz information criterion (SC) values was considered as the best model, following the obtained appropriate Ki values. Model fitting and parameter estimation were performed using Graphpad Prism V5 software (SanDiego, CA)."}, "[1]": {"test": "Stability tests of analytes in rat plasma QC samples", "format": "in vitro ADME", "details": "rat plasma", "description": "[…] The dilution integrity was investigated by analyzing six replicate samples with each analyte, and each analyte were diluted 10-fold with blank rat matrix. Furthermore, the diluted samples were analyzed using freshly prepared calibration curve to calculate RE and RSD, which should be no more than ± 15% as criterion."}}, "data": [{"compound": "CC(C)=CCC[C@](C)(O[C@@H]1O[C@H](CO)[C@@H](O)[C@H](O)[C@H]1O)[C@H]1CC[C@]2(C)[C@@H]1[C@H](O)C[C@@H]1[C@@]3(C)CC[C@H](O)C(C)(C)[C@@H]3[C@@H](O[C@@H]3O[C@H](CO)[C@@H](O)[C@H](O)[C@H]3O[C@@H]3O[C@@H](C)[C@H](O)[C@@H](O)[C@H]3O)C[C@]12C", "note": "[Compound C9, Ginsenoside Re]", "values": [{"measurement": "IC50", "setting": "CYP1A2", "result": "> 100", "unit": "µM"}, {"measurement": "IC50", "setting": "CYP2C9", "result": "> 100", "unit": "µM"}, {"measurement": "IC50", "setting": "CYP2E1", "result": "> 100", "unit": "µM"}, {"measurement": "At -80 °C for 48 h, Mean±SD", "setting": "[1]; nominal conc. 40 nM", "result": "37.07 ± 2.41", "unit": "nM"}, {"measurement": "At -80 °C for 48 h, RE", "setting": "[1]; nominal conc. 40 nM", "result": -12.37, "unit": "%"}, {"measurement": "Extracted samples at 8 °C for 18 h, Mean±SD", "setting": "[1]; nominal conc. 40 nM", "result": "39.68 ± 3.10", "unit": "nM"}, {"measurement": "Extracted samples at 8 °C for 18 h, RE", "setting": "[1]; nominal conc. 40 nM", "result": -8.46, "unit": "%"}, {"measurement": "Short-term stability at room temperature for 6 h, Mean±SD", "setting": "[1]; nominal conc. 40 nM", "result": "42.26 ± 4.77", "unit": "nM"}, {"measurement": "Short-term stability at room temperature for 6 h, RE", "setting": "[1]; nominal conc. 40 nM", "result": 12.91, "unit": "%"}, {"measurement": "Three freeze-thaw cycles (-80 °C ↔ 23 °C), Mean±SD", "setting": "[1]; nominal conc. 40 nM", "result": "39.18 ± 1.53", "unit": "nM"}, {"measurement": "Three freeze-thaw cycles (-80 °C ↔ 23 °C), RE", "setting": "[1]; nominal conc. 40 nM", "result": -5.32, "unit": "%"}, {"measurement": "At -80 °C for 48 h, Mean±SD", "setting": "[1]; nominal conc. 200 nM", "result": "181.77 ± 7.39", "unit": "nM"}, {"measurement": "At -80 °C for 48 h, RE", "setting": "[1]; nominal conc. 200 nM", "result": -12.74, "unit": "%"}, {"measurement": "Extracted samples at 8 °C for 18 h, Mean±SD", "setting": "[1]; nominal conc. 200 nM", "result": "193.91 ± 26.18", "unit": "nM"}, {"measurement": "Extracted samples at 8 °C for 18 h, RE", "setting": "[1]; nominal conc. 200 nM", "result": -12.50, "unit": "%"}, {"measurement": "Short-term stability at room temperature for 6 h, Mean±SD", "setting": "[1]; nominal conc. 200 nM", "result": "175.60 ± 2.61", "unit": "nM"}, {"measurement": "Short-term stability at room temperature for 6 h, RE", "setting": "[1]; nominal conc. 200 nM", "result": -13.13, "unit": "%"}, {"measurement": "Three freeze-thaw cycles (-80 °C ↔ 23 °C), Mean±SD", "setting": "[1]; nominal conc. 200 nM", "result": "205.17 ± 19.51", "unit": "nM"}, {"measurement": "Three freeze-thaw cycles (-80 °C ↔ 23 °C), RE", "setting": "[1]; nominal conc. 200 nM", "result": 11.83, "unit": "%"}, {"measurement": "At -80 °C for 48 h, Mean±SD", "setting": "[1]; nominal conc. 800 nM", "result": "836.79 ± 51.65", "unit": "nM"}, {"measurement": "At -80 °C for 48 h, RE", "setting": "[1]; nominal conc. 800 nM", "result": 10.56, "unit": "%"}, {"measurement": "Extracted samples at 8 °C for 18 h, Mean±SD", "setting": "[1]; nominal conc. 800 nM", "result": "827.44 ± 80.86", "unit": "nM"}, {"measurement": "Extracted samples at 8 °C for 18 h, RE", "setting": "[1]; nominal conc. 800 nM", "result": 12.75, "unit": "%"}, {"measurement": "Short-term stability at room temperature for 6 h, Mean±SD", "setting": "[1]; nominal conc. 800 nM", "result": "724.25 ± 14.79", "unit": "nM"}, {"measurement": "Short-term stability at room temperature for 6 h, RE", "setting": "[1]; nominal conc. 800 nM", "result": -11.32, "unit": "%"}, {"measurement": "Three freeze-thaw cycles (-80 °C ↔ 23 °C), Mean±SD", "setting": "[1]; nominal conc. 800 nM", "result": "818.48 ± 84.93", "unit": "nM"}, {"measurement": "Three freeze-thaw cycles (-80 °C ↔ 23 °C), RE", "setting": "[1]; nominal conc. 800 nM", "result": 12.80, "unit": "%"}]}]}
